According to patent US20250257060A1, “OXADIAZOLE COMPOUND, PHARMACEUTICAL COMPOSITION COMPRISING SAME, AND USE THEREOF” (SUZHOU GENHOUSE BIO CO., LTD., priority 2022, published 2025):

Tested on: Salmonella typhimurium auxotroph strains TA98 and TA100
Experiment: Ames assay (mutagenicity test)
Assay type: cell-based
Conditions: TA98 and TA100, with or without S9
Procedure: The test strains adopted in the mutagenicity test were Salmonella typhimurium auxotroph strains TA98 and TA100. The test was performed using a 6-well plate in the presence or absence of the S9 metabolic activation system, with both a solvent control group (DMSO) and a positive control group set, with 2 replicate wells per treatment group. Compounds were set at 5 concentrations ranging from 62.5 μg/well to 1000.0 μg/well (equivalent to 312.5 μg/dish to 5000.0 μg/dish in the standard Ames assay). The plate was incubated at 37° C. for 48-72 h, and then bacterial toxicity was measured in each well and the number of mutant colonies in each well was counted. When the number of revertant colonies of the test compound groups is more than twice the number of spontaneous revertant colonies of the solvent control group in a reproducible and dose-dependent manner, the test substance is considered to have positive mutagenicity for the test strain.
In this test, dimethyl sulfoxide (DMSO) was used to dissolve the test substance and served as a negative (solvent) control. In the S9-free group (−S9), 2-nitrofluorene and sodium azide were used as positive controls for TA98 and TA100, respectively; in the S9 group (+S9), 2-aminofluorene was used as a positive control for TA98 and TA100.

Compound: O=C(N[C@H]1[C@H](N2Cc3ccc(-c4nnc(C(F)F)o4)cc3S2(=O)=O)CCCC1(F)F)C(F)F [Compound 61]
- Pollutant mutagenicity test results: Negative
